Several values for one entry are separate records, joined by “and”; a condition that tells them apart may be missing. Identical values can stand only once. Inconclusive results and toxic doses are left out.

T/C data for 24 molecules are collected here from PubChem BioAssay AID256 (DTP/NCI, 2004).

This assay concerns CD2F1 mice, L1210 leukemia ip, survival T/C. In words: NCI In Vivo Anticancer Drug Screen. Data for tumor model L1210 Leukemia (intraperitoneal) in CD2F1 (CDF1) mice. To be noted: endpoint: mean survival time, higher = longer survival. In short, it runs like this: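 Transplantable tumor in mice; compound-treated vs vehicle-treated groups. Read-out = treated/control ratio of the measured endpoint.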

Where [1] appears, read: dose: 25.0 mg/kg/injection, schedule: Q01DX009 (ip), vehicle: saline with Tween-80.
Where [2] appears, read: dose: 50.0 mg/kg/injection, schedule: Q01DX009 (ip), vehicle: saline with Tween-80.
The mark [3] stands for this setting: dose: 100.0 mg/kg/injection, schedule: Q01DX009 (ip), vehicle: saline with Tween-80.
The mark [4] stands for this setting: dose: 100.0 mg/kg/injection, schedule: Q04DX003 (ip), vehicle: saline with Tween-80.
The mark [5] stands for this setting: dose: 200.0 mg/kg/injection, schedule: Q01DX009 (ip), vehicle: saline with Tween-80.
The mark [6] stands for this setting: dose: 200.0 mg/kg/injection, schedule: Q04DX003 (ip), vehicle: saline with Tween-80.
Setting [7] is: dose: 400.0 mg/kg/injection, schedule: Q01DX009 (ip), vehicle: saline with Tween-80.
Where [8] appears, read: dose: 400.0 mg/kg/injection, schedule: Q04DX003 (ip), vehicle: saline with Tween-80.
Setting [9] is: dose: 100.0 mg/kg/injection, schedule: Q04DX002 (ip), vehicle: saline with Tween-80.
The mark [10] stands for this setting: dose: 200.0 mg/kg/injection, schedule: Q04DX002 (ip), vehicle: saline with Tween-80.
The mark [11] stands for this setting: dose: 400.0 mg/kg/injection, schedule: Q04DX002 (ip), vehicle: saline with Tween-80.
The mark [12] stands for this setting: dose: 100.0 mg/kg/injection, schedule: Q01DX001 (ip), vehicle: saline.
Setting [13] is: dose: 100.0 mg/kg/injection, schedule: Q01DX001 (ip), vehicle: saline with Tween-80.
The mark [14] stands for this setting: dose: 200.0 mg/kg/injection, schedule: Q01DX001 (ip), vehicle: saline with Tween-80.
The mark [15] stands for this setting: dose: 400.0 mg/kg/injection, schedule: Q01DX001 (ip), vehicle: saline with Tween-80.

Take `Cc1ccc(Cl)c2ccccc12`: the T/C reads like this: (dose: 12.5 mg/kg/injection, schedule: Q01DX009 (ip), vehicle: saline with Tween-80) 97 % of control; under setting [1], 100 % of control; under setting [2], 97 % of control; under setting [3], 94 % of control.
As for `O=[N+]([O-])C(Br)(CO)CO`, the T/C is, setting by setting: (dose: 4.7 mg/kg/injection, schedule: Q01DX009 (ip), vehicle: saline) 101 % of control; (dose: 4.7 mg/kg/injection, schedule: Q04DX003 (ip), vehicle: saline) 98 % of control; (dose: 9.4 mg/kg/injection, schedule: Q01DX009 (ip), vehicle: saline) 101 % of control; (dose: 9.4 mg/kg/injection, schedule: Q04DX003 (ip), vehicle: saline) 96 % of control; (dose: 18.8 mg/kg/injection, schedule: Q01DX001 (ip), vehicle: saline) 102 % of control; (dose: 18.8 mg/kg/injection, schedule: Q01DX009 (ip), vehicle: saline) 95 % of control. Besides, the T/C (dose: 18.8 mg/kg/injection, schedule: Q04DX003 (ip), vehicle: saline) was 105 % of control.
Turning to `C/C(=N\O)C1(C)CC=CCC1CO` (stereo not drawn), the T/C is 102 % of control (dose: 100.0 mg/kg/injection, schedule: Q01DX009 (ip), vehicle: saline sonified); 96 % of control (dose: 200.0 mg/kg/injection, schedule: Q01DX009 (ip), vehicle: saline sonified); 100 % of control (dose: 400.0 mg/kg/injection, schedule: Q01DX009 (ip), vehicle: saline sonified).
For the molecule `NC(CSCc1cccs1)C(=O)O` (stereo not drawn), the T/C by setting is: (dose: 25.0 mg/kg/injection, schedule: Q01DX009 (ip), vehicle: saline) 94 % of control; (dose: 50.0 mg/kg/injection, schedule: Q01DX009 (ip), vehicle: saline) 100 % of control; (dose: 100.0 mg/kg/injection, schedule: Q01DX009 (ip), vehicle: saline) 90 % of control; (dose: 200.0 mg/kg/injection, schedule: Q01DX009 (ip), vehicle: saline) 101 % of control; (dose: 400.0 mg/kg/injection, schedule: Q01DX009 (ip), vehicle: saline) 95 % of control.
Consider `CC(CC(O)(c1ccccc1)c1ccccc1)C(F)(F)F` (stereo not drawn), for which the T/C is 100 % of control under setting [3]; 94 % of control under setting [4]; 95 % of control under setting [5]; 96 % of control under setting [6]; 98 % of control under setting [7]; 97 % of control under setting [8].
For `O=C(O)CCC(NC(=O)OCc1ccccc1)C(=O)OCc1ccccc1` (stereo not drawn), the T/C reads like this: under setting [4], 95 % of control; under setting [6], 93 % of control; under setting [8], 96 % of control.
`O=C1NCC(c2ccccc2)(C2CC2)O1` (stereo not drawn): the T/C is 100 % of control under setting [9], 100 % of control under setting [10] and 100 % of control under setting [11].
As to `C=C1C(=O)OC2CC(C)C3CC(O)OC(O)C3(C)CC12` (stereo not drawn), the T/C is, setting by setting: (dose: 3.13 mg/kg/injection, schedule: Q01DX005 (ip), vehicle: water) 88 % of control; (dose: 6.25 mg/kg/injection, schedule: Q01DX005 (ip), vehicle: water) 94 % of control; (dose: 12.5 mg/kg/injection, schedule: Q01DX005 (ip), vehicle: water) 102 % of control.
For `C[S+](C)CC(C)(C)CI`, the T/C was 100 % of control (dose: 25.0 mg/kg/injection, schedule: Q01DX001 (ip), vehicle: saline); 110 % of control (dose: 50.0 mg/kg/injection, schedule: Q01DX001 (ip), vehicle: saline); 100 % of control and 101 % of control under setting [12].
Turning to `Cc1ccc([P+](Cc2ccccc2)(c2ccccc2)c2ccccc2)cc1`, the T/C is 108 % of control (dose: 5.0 mg/kg/injection, schedule: Q01DX001 (ip), vehicle: saline); 105 % of control (dose: 10.0 mg/kg/injection, schedule: Q01DX001 (ip), vehicle: saline); 96 % of control (dose: 20.0 mg/kg/injection, schedule: Q01DX001 (ip), vehicle: saline); 109 % of control (dose: 40.0 mg/kg/injection, schedule: Q01DX001 (ip), vehicle: saline).
With `O=S(O)O.O=S(O)O.[Co].[NH2-].[NH2-].[NH2-].[NH2-]`, the T/C runs as follows: under setting [9], 108 % of control; under setting [10], 108 % of control; under setting [11], 119 % of control.
With `CC(CC(=O)O)c1ccc(F)cc1` (stereo not drawn), the T/C reads like this: under setting [4], 101 % of control; under setting [6], 100 % of control; under setting [8], 95 % of control.
Regarding `CC(C)(C)CC(C)(C)c1ccc(OCCOc2ccc(C(=O)Nc3ccc(S(=O)(=O)Oc4ccccc4)cc3)cc2[N+](=O)[O-])cc1`, the T/C (dose: 100.0 mg/kg/injection, schedule: Q01DX009 (ip), vehicle: Klucel (hydroxypropylcellulose) (HPC)) is 101 % of control; the T/C under setting [4] was 98 % of control; the T/C (dose: 200.0 mg/kg/injection, schedule: Q01DX009 (ip), vehicle: Klucel (hydroxypropylcellulose) (HPC)) was 106 % of control; the T/C under setting [6] was 93 % of control; the T/C (dose: 400.0 mg/kg/injection, schedule: Q01DX009 (ip), vehicle: Klucel (hydroxypropylcellulose) (HPC)) is 95 % of control; the T/C under setting [8] is 92 % of control.
Consider `C1CCC2C(C1)CC1CCCCC1C2C1C2CCCCC2CC2CCCCC21` (stereo not drawn), for which the T/C reads like this: under setting [4], 97 % of control; under setting [6], 100 % of control; under setting [8], 96 % of control.
`CCC(=O)OCCn1c2ccccc2c2c(C)c3cnccc3c(C)c21`: the T/C runs as follows: under setting [3], 110 % of control; under setting [4], 102 % of control; under setting [6], 107 % of control; under setting [7], 154 % of control; under setting [8], 123 % of control.
As for `CCOC(=O)C(CCC#N)(CCC#N)C(=O)OCC`, the T/C is, setting by setting: under setting [3], 91 % of control; under setting [4], 96 % of control; under setting [5], 94 % of control; under setting [6], 102 % of control; under setting [7], 94 % of control; under setting [8], 104 % of control.
Regarding `Cc1ccc(S(=O)(=O)N=S2CCCC2)cc1`, the T/C is 102 % of control (dose: 100.0 mg/kg/injection, schedule: Q04DX003 (ip), vehicle: other); 106 % of control (dose: 200.0 mg/kg/injection, schedule: Q04DX003 (ip), vehicle: other); 104 % of control (dose: 400.0 mg/kg/injection, schedule: Q04DX003 (ip), vehicle: other).
`COc1cc(Cl)c(CC(=O)Cl)cc1OC`: the T/C is, setting by setting: (dose: 75.0 mg/kg/injection, schedule: Q01DX001 (ip), vehicle: saline) 105 % of control; (dose: 150.0 mg/kg/injection, schedule: Q01DX001 (ip), vehicle: saline) 106 % of control; (dose: 300.0 mg/kg/injection, schedule: Q01DX001 (ip), vehicle: saline) 95 % of control.
Regarding `CC1(C)C(=O)C2(I)CCC1C2` (stereo not drawn), the T/C was 101 % of control under setting [4], 98 % of control under setting [6] and 98 % of control under setting [8].
Consider `CC(C)OC(N)=O`, for which the T/C is 94 % of control under setting [12]; 106 % of control under setting [3]; 97 % of control (dose: 100.0 mg/kg/injection, schedule: Q04DX003 (ip), vehicle: saline); 102 % of control (dose: 200.0 mg/kg/injection, schedule: Q01DX001 (ip), vehicle: saline); 103 % of control under setting [5]; 101 % of control (dose: 200.0 mg/kg/injection, schedule: Q04DX003 (ip), vehicle: saline). In addition, the T/C runs as follows: (dose: 400.0 mg/kg/injection, schedule: Q01DX001 (ip), vehicle: saline) 100 % of control; under setting [7], 105 % of control; (dose: 400.0 mg/kg/injection, schedule: Q04DX003 (ip), vehicle: saline) 100 % of control.
With `COc1ccc(/C=C/c2ccccc2)cc1`, the T/C reads like this: under setting [13], 95 % of control; under setting [14], 88 % of control; under setting [15], 86 % of control.
For `Cc1cc(N)c(S(=O)(=O)NO)cc1Cl` the same measures were 96 % of control, 96 % of control and 102 % of control.
Consider `CC(=O)COc1ccccc1[N+](=O)[O-]`, for which the T/C reads like this: under setting [13], 108 % of control; under setting [14], 104 % of control; under setting [15], 112 % of control.
As for `CN(C)c1ccc2nc(CC(O)(C(F)(F)F)C(F)(F)F)ccc2c1`, the T/C was 95 % of control under setting [1], 95 % of control under setting [2], 93 % of control under setting [3] and 89 % of control under setting [4].
